Structures can show the parent of a compound that is named as a salt.
Tests used:
DU4475 cells = experiment: Cell-based assay: anti-proliferative activity, Cell Counting Kit-8, 72 hours (DU4475); conditions: Homo sapiens, DU-4475
T47D cells = experiment: Cell-based assay: anti-proliferative activity, Cell Counting Kit-8, 72 hours (T47D); conditions: Homo sapiens, T47D, 72 h
Procedure, shortened: (§1)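 Target-specific cytotoxicity: seeded cells treated with MELK inhibitor candidates for 72 h, proliferation quantified via CCK-8, IC50 fitted.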

MELK = MELK (Homo sapiens, UniProt Q14680); experiment: Kinase assay: MELK activity, phosphorylation of FITC-labeled histone H3 peptide measured by IMAP fluorescence polarization; assay type: biochemical; conditions: MELK kinase assay, IMAP fluorescence polarization, 50 micro-M ATP; read-out: IC50 (μM) (kinase assay)
Sequence of MELK (Q14680 whole entry, looked up): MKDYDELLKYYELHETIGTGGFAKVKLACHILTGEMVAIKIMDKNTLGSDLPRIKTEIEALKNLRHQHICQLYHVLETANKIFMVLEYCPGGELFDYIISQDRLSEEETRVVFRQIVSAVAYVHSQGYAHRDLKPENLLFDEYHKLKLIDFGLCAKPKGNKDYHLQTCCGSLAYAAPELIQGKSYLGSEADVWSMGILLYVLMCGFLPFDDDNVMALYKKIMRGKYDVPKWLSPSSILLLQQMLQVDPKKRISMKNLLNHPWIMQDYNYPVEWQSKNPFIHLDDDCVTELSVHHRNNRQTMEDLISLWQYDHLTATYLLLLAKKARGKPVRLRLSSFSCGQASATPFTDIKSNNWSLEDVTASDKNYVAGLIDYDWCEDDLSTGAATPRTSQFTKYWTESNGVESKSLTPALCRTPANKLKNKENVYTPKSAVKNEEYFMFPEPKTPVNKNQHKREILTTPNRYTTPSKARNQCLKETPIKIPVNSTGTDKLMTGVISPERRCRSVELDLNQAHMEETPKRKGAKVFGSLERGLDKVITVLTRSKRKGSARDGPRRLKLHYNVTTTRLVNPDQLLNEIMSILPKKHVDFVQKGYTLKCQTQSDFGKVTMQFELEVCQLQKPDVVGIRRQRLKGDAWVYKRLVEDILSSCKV
Procedure, shortened: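 Polarization of fluorescence served as the signal for MELK turnover of FITC-conjugated histone H3 peptide. Binding solution quenched each reaction, and plates stood 0.5 hour at room temperature before reading.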

HT-1197 cells = experiment: Cell-based assay: anti-proliferative activity, Cell Counting Kit-8, 72 hours (HT-1197, negative control without MELK expression); conditions: Homo sapiens, HT1197, 72 h, HT1197 cells (negative control), 72 hours
Procedure, shortened: as §1

A549 cells = experiment: Cell-based assay: anti-proliferative activity, Cell Counting Kit-8, 72 hours (A549); conditions: Homo sapiens, A549, 72 h, 72 hours
Procedure, shortened: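 A549 cells were seeded in 96-well plates and exposed to candidate inhibitors for 72 hours. Cell growth was then measured with Cell Counting Kit-8, and IC50 values were calculated from the resulting growth data.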

22Rv1 cells = experiment: Cell-based assay: anti-proliferative activity, Cell Counting Kit-8, 72 hours (22Rv1); conditions: Homo sapiens

SMILES | IC50 (DU4475 cells) | IC50 (T47D cells) | IC50 (MELK) | IC50 (HT-1197 cells) | IC50 (A549 cells) | IC50 (22Rv1 cells)
CN(C)C[C@H]1CC[C@H](Nc2c(C(=O)C(C)(C)C)cnc3ccc(-c4cc(F)c(O)c(Cl)c4)cc23)CC1 [Example 919, 1-(6-(3-chloro-5-fluoro-4-hydroxy-phenyl)-4-((1R,4R)-4-((dimethylamino)methyl)cyclohexyl)amino)quinolin-3-yl)-2,2-dimethylpropan-1-one hydrochloride] | 2.5 µM | 1.9 µM | 0.034 µM | 6.4 µM | 4.3 µM | 3.5 µM
CC(N)C(=O)N[C@H]1CC[C@H](Nc2c(C(=O)C(C)(C)C)cnc3ccc(-c4cc(F)c(O)c(Cl)c4)cc23)CC1 (stereo partly drawn) [Example 932, 2-amino-N-(1R,4R)-4-((6-(3-chloro-5-fluoro-4-hydroxyphenyl)-3-pivaloyl-quinolin-4-yl)amino)cyclohexyl) propanamide hydrochloride] | 1 µM | 0.71 µM | 0.047 µM | 7.6 µM | 4.7 µM | 1.6 µM
CC(=O)c1cnc2ccc(-c3cc(Cl)c(O)c(Cl)c3)cc2c1N[C@H]1CC[C@H](NC(=O)CN(C)C)CC1 [Example 877, N-(1R,4R)-4-((3-acetyl-6-(3,5-dichloro-4-hydroxyphenyl)quinolin-4-yl)amino)cyclohexyl)-2-(dimethylamino)acetamide hydrochloride] | 0.11 µM | 0.11 µM | 0.0027 µM | 2 µM | 0.2 µM | 0.18 µM
CC(=O)c1cnc2ccc(-c3cc(F)c(O)c(Cl)c3)cc2c1N[C@H]1CC[C@H](C(=O)NCCN(C)C)CC1 [Example 893, (1r,4r)-4-((3-acetyl-6-(3-chloro-5-fluoro-4-hydroxyphenyl)quinolin-4-yl)amino)-N-(2-(dimethylamino)ethyl) cyclohexanecarboxamide hydrochloride] | 0.67 µM | 0.59 µM | 0.0052 µM | 100 µM | 100 µM | 1.6 µM
CC(=O)c1cnc2ccc(-c3cc(Cl)c(O)c(Cl)c3)cc2c1N[C@H]1CC[C@H](NC(=O)C(N)C(C)C)CC1 (stereo partly drawn) [Example 915] | 0.062 µM | 0.053 µM | 0.0031 µM | 3.5 µM | 0.29 µM | 0.099 µM
CC(=O)c1cnc2ccc(-c3cc(Cl)c(O)c(Cl)c3)cc2c1N[C@H]1CC[C@H](NC(=O)[C@H](C)N)CC1 [Example 886] | 0.016 µM | 0.045 µM | 0.00066 µM | 11 µM | 0.64 µM | 0.088 µM
CN(C)CCOc1ccc(Nc2c(S(C)(=O)=O)cnc3ccc(-c4cc(F)c(O)c(Cl)c4)cc23)cn1 [Example 885, 2-chloro-4-(4-((6-(2-(dimethylamino)ethoxy)pyridin-3-yl)amino)-3-(methylsulfonyl)quinolin-6-yl)-6-fluorophenol hydrochloride] | 0.62 µM | 0.7 µM | 0.0083 µM | 10 µM | 3 µM | 2.5 µM
CC(=O)c1cnc2ccc(-c3cc(F)c(O)c(Cl)c3)cc2c1N[C@H]1CC[C@H](NC(=O)[C@@H](N)C(C)(C)C)CC1 [Example 914, (S)-N-((1r,4S)-4-((3-acetyl-6-(3-chloro-5-fluoro-4-hydroxyphenyl)quinolin-4-yl)amino)cyclohexyl)-2-amino-3,3-dimethylbutanamide hydrochloride] | 0.19 µM | 0.075 µM | 0.028 µM | 3.6 µM | 0.65 µM | 0.28 µM
CC(=O)c1cnc2ccc(-c3ccc4nc[nH]c4c3)cc2c1N[C@H]1CC[C@H](CN(C)C)CC1 [Example 911, 1-(6-(1H-benzo[d]imidazol-6-yl)-4-((1R,4R)-4-((dimethylamino)methyl)cyclohexyl)amino)quinolin-3-yl) ethanone hydrochloride] | 10 µM | 10 µM | 0.13 µM | 13 µM | 3.2 µM | 5.4 µM
CC(=O)c1cnc2ccc(-c3cc(F)c(O)c(Cl)c3)cc2c1N[C@H]1CC[C@H](NC(=O)CN(C)C)CC1 [Example 876] | 0.092 µM | 0.033 µM | 0.0088 µM | 1.5 µM | 0.16 µM | 0.14 µM
[2H]C([2H])([2H])N(C[C@H]1CC[C@H](Nc2c(C(C)=O)cnc3ccc(-c4cc(Cl)c(O)c(Cl)c4)cc23)CC1)C([2H])([2H])[2H] [Example 864, 1-(6-(3,5-dichloro-4-hydroxyphenyl)-4-((trans-4-((dimethyl-d6-amino)methyl)cyclohexyl)amino)quinolin-3-yl)ethanone dihydrochloride] | 0.043 µM | 0.067 µM | 0.0011 µM | 1.3 µM | 0.11 µM | 0.081 µM
CC(=O)c1cnc2ccc(-c3cc(F)c(O)c(Cl)c3)cc2c1N[C@H]1CC[C@H](NC(=O)[C@@H]2CCCN2)CC1 [Example 921, (S)—N-((1R,4S)-4-(3-acetyl-6-(3-chloro-5-fluoro-4-hydroxyphenyl)quinolin-4-ylamino)cyclohexyl)pyrrolidine-2-carboxamide] | 0.068 µM | 0.048 µM | 0.012 µM | 10 µM | 1.2 µM | 0.21 µM
CC(=O)c1cnc2ccc(-c3cc(F)c(O)c(Cl)c3)cc2c1Nc1cncc(CCN2CCCC2)c1 [Example 880, 1-(6-(3-chloro-5-fluoro-4-hydroxyphenyl)-4-((5-(2-(pyrrolidin-1-yl)ethyl)pyridin-3-yl)amino)quinolin-3-yl)ethanone hydrochloride] | 0.96 µM | 3.1 µM | 0.04 µM | 46 µM | 1.8 µM | 7.4 µM
O=C(c1cnc2ccc(-c3cc(F)c(O)c(Cl)c3)cc2c1Nc1cncc(CCN2CCCC2)c1)C1CC1 [Example 882, (6-(3-chloro-5-fluoro-4-hydroxyphenyl)-4-((5-(2-(pyrrolidin-1-yl)ethyl)pyridin-3-yl)amino)quinolin-3-yl)(cyclopropyl)methanone] | 0.15 µM | 100 µM | 0.019 µM | 100 µM | 0.27 µM | 3.1 µM
CS(=O)(=O)c1cnc2ccc(-c3cc(F)c(O)c(Cl)c3)cc2c1Nc1cccc(CCN2CCCC2)c1 [Example 879, 2-chloro-6-fluoro-4-(3-(methylsulfonyl)-4-((3-(2-(pyrrolidin-1-yl)ethyl)phenyl)amino)quinolin-6-yl)phenol hydrochloride] | 0.9 µM | 1.1 µM | 0.011 µM | 9 µM | 3.8 µM | 3 µM
CS(=O)(=O)c1cnc2ccc(-c3cc(Cl)c(O)c(Cl)c3)cc2c1Nc1ccc(N2CCCC(N)C2)nc1 (stereo not drawn) [Example 913, 4-(4-(6-(3-aminopiperidin-1-yl)pyridin-3-ylamino)-3-(methylsulfonyl)quinolin-6-yl)-2,6-dichlorophenol] | 0.025 µM | 0.27 µM | 0.00094 µM | 100 µM | 2.6 µM | 0.58 µM
CN1CCC(n2cc(Nc3c(C(=O)C(C)(C)C)cnc4ccc(-c5cc(Cl)c(O)c(Cl)c5)cc34)cn2)CC1 [Example 931, 1-(6-(3,5-dichloro-4-hydroxyphenyl)-4-((1-(1-methylpiperidin-4-yl)-1H-pyrazol-4-yl)amino)quinolin-3-yl)-2,2-dimethylpropan-1-one hydrochloride] | 1.5 µM | 1.4 µM | 0.0062 µM | 100 µM | 1.8 µM | 2.1 µM
CC(=O)c1cnc2ccc(-c3cc(Cl)c(O)c(Cl)c3)cc2c1N[C@H]1CC[C@H](NC(=O)[C@@H]2CCCN2)CC1 [Example 920, (S)—N-((1R,4S)-4-(3-acetyl-6-(3,5-dichloro-4-hydroxyphenyl)quinolin-4-ylamino)cyclohexyl)pyrrolidine-2-carboxamide] | 0.073 µM | 0.1 µM | 0.0019 µM | 6.5 µM | 0.86 µM | 0.34 µM
CC(=O)c1cnc2ccc(-c3ccc4cc(O)ccc4c3)cc2c1N[C@H]1CC[C@H](CN(C)C)CC1 [Example 929, 1-(4-((1R,4R)-4-((dimethylamino)methyl)cyclohexyl)amino)-6-(6-hydroxynaphthalen-2-yl)quinolin-3-yl)ethanone hydrochloride] | 2.8 µM | 3.3 µM | 0.064 µM | 3.9 µM | 0.87 µM | 0.71 µM
